Data published in publication PMC13085583 (Cell host & microbe, 2026).
Read-outs that look alike come from different tables or passages of the source.

Test system: CbCdnB
Conditions: 10 mM Tris-HCl pH 7.4, 25 mM KCl, 20 mM MgCl2, 1 mM MnCl2, 37 °C

CbCdnB, sequence (A0A0L9Y448 1-469): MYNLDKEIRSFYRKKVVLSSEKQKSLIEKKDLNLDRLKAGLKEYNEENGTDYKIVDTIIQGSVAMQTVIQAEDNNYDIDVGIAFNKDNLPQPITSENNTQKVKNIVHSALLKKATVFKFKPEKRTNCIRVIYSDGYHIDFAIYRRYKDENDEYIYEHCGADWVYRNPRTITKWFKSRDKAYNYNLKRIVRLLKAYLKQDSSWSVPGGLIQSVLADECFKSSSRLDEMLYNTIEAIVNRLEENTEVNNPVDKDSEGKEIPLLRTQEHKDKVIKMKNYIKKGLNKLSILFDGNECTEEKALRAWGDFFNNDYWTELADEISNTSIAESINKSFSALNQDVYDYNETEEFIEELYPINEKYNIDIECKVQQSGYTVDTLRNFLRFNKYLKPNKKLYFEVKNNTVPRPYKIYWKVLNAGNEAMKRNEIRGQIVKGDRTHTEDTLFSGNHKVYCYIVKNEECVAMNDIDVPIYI

SMILES: Nc1ncnc2c1ncn2[C@@H]1O[C@H](COP(=O)(O)OP(=O)(O)OP(=O)(O)O)[C@@H](O)[C@H]1O [ATP]
- ELISA of product 2′,3′-cGAMP (with GTP): enzyme reaction products produced when the indicated synthase is incubated with ATP and GTP

SMILES: Nc1nc2c(ncn2[C@@H]2O[C@H](COP(=O)(O)OP(=O)(O)OP(=O)(O)O)[C@@H](O)[C@H]2O)c(=O)[nH]1 [GTP]
- ELISA of product 2′,3′-cGAMP (with ATP): enzyme reaction products produced when the indicated synthase is incubated with ATP and GTP
